# Test results as given in patent publication US20220125777A1, “COMBINATION OF A CDK INHIBITOR AND A PIM INHIBITOR” (Pfizer Inc., priority 2019, published 2022).
# System: HR+/HER2− advanced or metastatic breast cancer
# Assay: Study 2: progression-free survival by PIM2 mRNA expression, palbociclib plus fulvestrant vs placebo plus fulvestrant
# Format: in vivo, human
# Conditions: Study 2, control arm, fulvestrant alone (placebo plus fulvestrant 500 mg IM); FIG. 2A
# Experimental: Study 2 was conducted in HR+/HER2− advanced or metastatic breast cancer (MBC) patients who had progressed on prior endocrine therapy. Pre- and peri-menopausal subjects were given an LHRH agonist. Subjects were treated with palbociclib (125 mg QD, 3/1 schedule) plus fulvestrant (500 mg IM on Days 1 and 15 of Cycle 1, and then Day 1 of each subsequent 28-day cycle) or placebo (3/1 schedule QD) plus fulvestrant on the same schedule. In both studies, the primary outcome was PFS as assessed by the investigator.
# Tumor samples were analyzed to identify potential predictive biomarkers for palbociclib plus letrozole treatment. Using the EdgeSeq Oncology BM Panel, mRNA expression was assessed for 2534 cancer-related genes. […] Targeted capture sequencing was used to quantitate RNA expression levels of gene targets. […]
# The primary outcome was PFS as assessed by the investigator.
# Tumor samples were analyzed by EdgeSeq Oncology BM Panel (HTG Molecular Diagnostics; https://www.htgmolecular.com/assays/obp) for mRNA expression assessment of 2534 cancer-related genes. […]
# The EdgeSeq system used was validated and used targeted capture sequencing to quantitate RNA expression levels of gene targets in formalin-fixed paraffin-embedded tumor tissues. […]
smiles,measurement,value
C[C@]12CC[C@@H]3c4ccc(O)cc4C[C@@H](CCCCCCCCC[S+]([O-])CCCC(F)(F)C(F)(F)F)[C@H]3[C@@H]1CC[C@@H]2O (stereo partly shown) [fulvestrant],PFS of subjects having low PIM2 expression versus higher PIM2 expression,shorter PFS
